Columns and labels:
[1] = test system: demyelination model mice (0.2% cuprizone); test: Myelin level by Black Gold staining in cuprizone demyelination model mice (Example 1); assay type: in vivo, C57BL/6 mice; settings: intraperitoneal 40 μg/200 μl saline/day for 5 weeks, FIG. 2
Experimental: 10-week-old male C57BL/6 mice were fed with a mash feed containing 0.2% cuprizone for five weeks until the most significant demyelination occurred, so as to produce demyelination model mice. cPA and carba-cPA (cPA) powders were each dissolved in a saline, and the obtained solutions were each administered intraperitoneally at a dose of 40 μg/200 μl saline/day to the mice every day for 5 weeks. On the other hand, to negative control mice, a saline (200 μl/day) was intraperitoneally administered in the same manner as described above. The mice, to which the test compound had been administered, were subjected to perfusion fixation with 4% paraformaldehyde, and sections to be used for frozen tissue staining (30 μm) were then prepared in a cryostat (FIG. 1). The level of myelin in each mouse was measured by Black Gold staining, and the demyelination level was then measured based on the stained level (FIG. 2).

[2] = test system: demyelination model mice (0.2% cuprizone), corpus callosum; test: Histological staining (Black Gold II) of corpus callosum and evaluation of demyelination (Example 2); assay type: in vivo, C57BL/6j mice; settings: intraperitoneal 1.6 mg/kg/day for 5 weeks, FIG. 3, FIG. 4
Text: 10-week-old male C57BL/6j mice (Tokyo Laboratory Animals Science Co., Ltd., Tokyo, Japan) were fed by the discretionary intake of a mash feed (CLEA Japan, Inc.) that contained 0.2% cuprizone (biscyclohexanone oxalyl hydrazone; Merck KGaA, Darmstadt, Germany) for 5 weeks until demyelination progressed most, so as to produce demyelination model mice involving demyelination caused by oligodendrocyte-specific cell death. To obtain tissues to be used for histological analysis, a mouse was subjected to perfusion fixation through the heart with 4% paraformaldehyde, and the resulting brain tissues were then excised from the mouse. Thereafter, the tissues were immobilized and infiltrated with 30% sucrose. Thereafter, a frozen tissue block was prepared and was then sliced in a cryostat. The cPA used in the experiment was the same cPA (16:0) as that used in Example 1, and the carba-cPA was 2 ccPA (16:1). The cPA and 2 ccPA were chemically purified (Biochimica et Biophysica Acta, Emi Nozaki 2011), and were then dissolved in a 0.9% saline. […] For the analysis of the level of myelin, using Image J 1.46r software, the stained level in the corpus callosum area was measured, and the demyelination level was then evaluated, while setting the control as 100%.

[3] = test system: demyelination model mice (0.2% cuprizone), corpus callosum; test: Electron microscope observation of myelin structure in corpus callosum; assay type: in vivo, C57BL/6j mice; settings: intraperitoneal 1.6 mg/kg/day for 5 weeks, FIG. 5
Text: 10-week-old male C57BL/6j mice (Tokyo Laboratory Animals Science Co., Ltd., Tokyo, Japan) were fed by the discretionary intake of a mash feed (CLEA Japan, Inc.) that contained 0.2% cuprizone (biscyclohexanone oxalyl hydrazone; Merck KGaA, Darmstadt, Germany) for 5 weeks until demyelination progressed most, so as to produce demyelination model mice involving demyelination caused by oligodendrocyte-specific cell death.
The cPA used in the experiment was the same cPA (16:0) as that used in Example 1, and the carba-cPA was 2 ccPA (16:1). The cPA and 2 ccPA were chemically purified (Biochimica et Biophysica Acta, Emi Nozaki 2011), and were then dissolved in a 0.9% saline. The cPA and 2 ccPA were continuously administered to mice via intraperitoneal administration for 5 weeks (1.6 mg/kg/day), at the same time with administration of cuprizone. Control mice were fed with a normal mash feed, and a normal saline was continuously administered to the control mice via intraperitoneal administration for 5 weeks.
Five weeks after administration of cuprizone, mice were subjected to perfusion fixation with 4% paraformaldehyde, and the brain was then collected from each mouse. Thereafter, corpus callosum tissues were removed from the brain, were then pre-fixed with 2.5% glutaraldehyde fixative, and were then washed with a 0.1 M cacodylate buffer. […]

CCCCCCCCCCCCCCCC(=O)OCC1COP(=O)(O)O1 (stereo not drawn) [cPA]
level of myelin (Black Gold staining) versus control mouse [1]: higher than the level of myelin in a control mouse | demyelination level in corpus callosum (Black Gold II staining) [2]: demyelination is suppressed | demyelination by electron microscope observation of myelin structure [3]: demyelination is suppressed

From patent US10413559B2, “Method for treating demyelinating disease” (OCHANOMIZU UNIVERSITY, priority 2013, dated 2019)
